Molecular target: T1, human MCH-1R (Homo sapiens, UniProt Q99705)
T1 construct: expressed in transfected cells; host or cells: CHO-K1 (American Type Culture Collection), vector pEF/myc/cyto; membranes used
Experiment: MCH binding inhibition test
Conditions: inhibition of specific [125I]MCH (50 pM) binding; membranes of MCH-1R expressing CHO-K1 cells; 25° C., one hour
Experimental: A human MCH-1R encoding cDNA sequence [FEBS Letters, Vol. 398, 253 (1996); Biochimica et Biophisica Acta, Vol. 1401, 216 (1998)] was cloned to a plasmid vector pEF/myc/cyto (by Invitrogen Corporation). The obtained expression vector was transfected to host cells CHO-K1 (American Type Culture Collection) using Lipofectamine Plus Reagent (by Life Technology Inc.) to provide MCH-1R expression cells.
Membrane samples prepared from the MCH-1R expression cells were incubated with each test compound and 50 pM of [^125I]MCH (by NEN Co.), in an assay buffer (50 mM Tris buffer comprising 10 mM magnesium chloride, 2 mM ethylenediamine tetraacetate, 0.01% bacitracin and 0.2% bovine serum albumin; pH 7.4) at 25° C. for an hour, followed by filtration through a glass filter GF/C (by Wattman Co.). After washing the glass filter with 50 mM Tris buffer (pH 7.4) comprising 10 mM magnesium chloride, 2 mM ethylenediamine tetraacetate and 0.04% Tween-20, the radioactive activity on the glass filter was measured. The non-specific binding was measured in the presence of 1 μM human MCH, and the 50% inhibition concentration (IC50 value) of each test compound to the specific [^125I]MCH binding was determined.

T1 sequence (Q99705 whole entry): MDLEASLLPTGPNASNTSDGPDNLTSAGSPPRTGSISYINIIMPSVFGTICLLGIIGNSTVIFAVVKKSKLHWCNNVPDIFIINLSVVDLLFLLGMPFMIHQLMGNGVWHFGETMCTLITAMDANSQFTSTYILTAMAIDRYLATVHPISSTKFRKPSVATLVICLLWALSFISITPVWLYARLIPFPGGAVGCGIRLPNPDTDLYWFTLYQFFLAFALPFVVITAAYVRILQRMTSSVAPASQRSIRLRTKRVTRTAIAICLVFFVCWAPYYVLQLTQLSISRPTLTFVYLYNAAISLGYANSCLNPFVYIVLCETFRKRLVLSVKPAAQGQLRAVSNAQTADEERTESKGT

SMILES	IC50
CCO/N=C(\c1ccc(F)c(F)c1)c1ccc(CN2CC3(CCN(c4ccc(F)nc4)C3)C2)cn1 [Example 1-10, (E)-(3,4-difluorophenyl)(5-{[6-(6-fluoro-3-pyridinyl)-2,6-diazaspiro[3.4]oct-2-yl]methyl}-2-pyridinyl)methanone O-ethyloxime]	7.6 nM
CCO/N=C(\c1ccc(F)c(F)c1)c1ccc(CN2CCC3(CCN(c4ccnnc4)C3)C2)cn1 (centres unmarked) [Example 2-3, (E)-(3,4-difluorophenyl)(5-{[7-(4-pyrazinyl)-2,7-diazaspiro[4.4]non-2-yl]methyl}-2-pyridinyl)methanone O-ethyloxime]	3.2 nM
CCO/N=C(\c1ccc(F)c(F)c1)c1ccc(CN2CC3(C2)CN(c2ccnc(C)c2)C3)cn1 [Example 2-24, (E)-(3,4-difluorophenyl)(5-{[6-(2-methyl-4-pyridinyl)-2,6-diazaspiro[3.3]hept-2-yl]methyl}-2-pyridinyl)methanone O-ethyloxime]	2.4 nM

Other lines, results leading:

IC50	SMILES
0.9 nM	CCO/N=C(\c1ccc(F)c(F)c1)c1ccc(CN2CC3(C2)CN(c2ccn4ccnc4c2)C3)cn1 [Example 2-40, (E)-(3,4-difluorophenyl){5-[(6-imidazo[1,2-a]pyridin-7-yl-2,6-diazaspiro[3.3]hept-2-yl)methyl]-2-pyridinyl}methanone O-ethyloxime]
0.36 nM	CCCc1cnc2cc(N3CC4(CN(Cc5ccc(/C(=N/OCC)c6ccc(F)c(F)c6)nc5)C4)C3)ccn12 [Example 2-44, (E)-(3,4-difluorophenyl)(5-{[6-(3-propylimidazo[1,2-a]pyridin-7-yl)-2,6-diazaspiro[3.3]hept-2-yl]methyl}-2-pyridinyl)methanone O-ethyloxime]
